Test results taken from patent publication US7476662B2, “Substituted tetracyclic imidazole derivatives, processes for their preparation, pharmaceutical compositions comprising them and their use as a medicine” (Janssen Pharmaceutica N.V., priority 2001, dated 2009).

Legend:
Rhesus monkeys = experiment: ICP in anaesthetised non-traumatised Rhesus monkeys; type: in vivo, Rhesus monkey; settings: i.v. infusion 2.5 and 5 mg/kg over 2.5 and 5 min (n=2/condition)
Procedure: The effect of Compound 1 on ICP was tested in a limited number of anaesthetised non-traumatised Rhesus monkeys with a i.v. infusion of a dose of 2.5 and 5 mg/kg over 2.5 and 5 min respectively (n=2/condition).

traumatized rats = experiment: Repeated application on elevated ICP in traumatized rats; type: in vivo, rat; settings: i.v. 1 mg/kg/min during 10 min, repeated, FIG. 3
Procedure: Compound 1 was given 2 times with intermittent periods of 20 min at a i.v. dose of 1 mg/kg/min during 10 min, starting a first time 20 min after induction of severe head injury.
Mannitol was given i.v. in the same time windows as Compound 1 at a dose of 0.125 g/kg/min. The control animals received the solvent (containing 10% HP-β-CD, pH 4) only.
This effect is amplified after termination of each, infusion period.

rat brain = experiment: Near-infrared spectroscopy (NIRS) of the rat brain: brain hemoglobin concentration and oxygenation after moderate head injury; type: in vivo; settings: 24 h after moderate head injury; i.v. 0.5 mg/kg.min 10 min then 0.1 mg/kg.min 45 min
From the text: Near-infrared spectroscopy (NIRS) of the rat brain ‘in vivo’ allows to quantify non-invasively saturation of brain haemoglobin with oxygen (HbSat) and total brain haemoglobin concentration ([HbTot]). The latter is a measure for cerebral blood volume (CBV). Changes in the redox state of the mitochondrial enzyme cytochrome oxidase (CytOx), an indicator for tissue oxygenation, can also be monitored.
HbSat is not affected by compound 1 and the racemate (Comp. 1 and Comp. 2).

Sprague-Dawley rats [1] = experiment: Changes in relevant physiological variables during treatment after severe CHI in rats; type: in vivo, rat; settings: median average change over entire treatment period, % change of initial value; 0.5 mg/kg/min 10 min then 0.1 mg/kg/min 50 min, started 20 min after severe CHI; n = 10
From the text: A clinically relevant rat model for traumatic brain injury was used to test the compounds according to the invention. This model mimics several clinical features of traumatic brain injury, such as increased ICP, decreased cerebral perfusion pressure, morphologic alterations including diffuse axonal injury, neuronal necrosis and contusion, impairment of autoregulation of cerebral blood flow and reduction of brain oxygenation and was applied for screening drugs with ICP-lowering effects. Trauma was induced in intubated, isoflurane anesthetized (1.5% isoflurane in a mixture of 30% O2 and 70% N2O) Sprague-Dawley rats (380-400 g) stereotaxically positioned on a table mounted on 4 springs. A 400 g steel cylinder, protected with a 9 mm diameter silicon disc, was dropped on the unprotected skull from a height of either 70 cm or 50 cm (respectively ‘severe’ and ‘moderate’ head injury). The impact area was centered between bregma and lamda. ICP was recorded using a Codman microsensor probe inserted in the parietal cortex. In both severe and moderate head injuries the ICP increased immediately after trauma and remained elevated for several days. The severe head injury mode was used for the evaluation of pharmacological effects immediately after trauma (screening procedure). When survival and recovery from anesthesia was envisaged, the moderate head injury mode was applied. In pharmacological studies, animals with a pathological ICP between 12.5 and 35 mm Hg were included. The changes in ICP, mean arterial blood pressure (MABP) and cerebral perfusion pressure CPP (=[…]) were expressed as percentage of the initial value at onset of the treatment. Screening procedure: On a weekly base, 4 treated groups of 3 rats were compared with 3 saline treated animals. Since conventional statistical methods require a larger amount of animals, a sequential procedure was used. Sequential methods operate in different stages. At each stage, a group of animals was selected as homogeneous as possible. Animals were randomly allocated to either drugs or saline. The procedure allowed to make the decision of rejecting the drug, accepting the drug as active or to continue with a new group of animals in a next stage. Given the biological relevant level of activity that must be detected, the expected fraction of false positive and negative results was known and fixed. A sequential two-sample grouped rank test was used. […] Despite the variability in the individual data, the procedure consistently accepted reference treatments such as mannitol as active, while controls were rejected.
Treatment was started at 20 min after severe head injury and involved administering a dose of 0.5 mg/kg/min during 10 minutes, followed by 0.1 mg/kg/min during 50 min.

rabbits = experiment: Cold lesion-induced rise of ICP in rabbits; type: in vivo, rabbit; settings: rabbits one day after cryo-lesion
Procedure: Cryo-lesions were induced in adult rabbits to obtain a pathological ICP that is caused by tissue oedema. A 8 mm stainless steel rod was placed at predetermined coordinates on the exposed skull of deeply anaesthetised rabbits and cooled for […] with liquid nitrogen. One day later the animals were re-anaesthetised and ICP and blood pressure continuously recorded as described for the rat. After a stabilisation period of 15 min, Compound 1 was infused for 10 min at a dose of 2 mg/kg/min. Solvent (preclinical formulation containing 10% HP-β-CD, pH 4) was given for 10 min at a rate of […].

non-traumatised rats = experiment: ICP, MABP and CPP in anaesthetised non-traumatised rats; type: in vivo, rat; settings: i.v. 0.5 mg/kg/min during 10 minutes, followed by 0.1 mg/kg/min during 50 min
Procedure: The effect of Compound 2, Compound 1 and Racemate (comp. 1 and comp. 2) on ICP, MABP and CPP was tested in anaesthetised non-traumatised rats. The compounds were administered i.v. and the same dose was given as in traumatized rats (0.5 mg/kg/min during 10 minutes, followed by 0.1 mg/kg/min during 50 min).

Sprague-Dawley rats [2] = experiment: Dose response of a 10 min infusion in the rat CHI model; type: in vivo
From the text: A clinically relevant rat model for traumatic brain injury was used to test the compounds according to the invention. This model mimics several clinical features of traumatic brain injury, such as increased ICP, decreased cerebral perfusion pressure, morphologic alterations including diffuse axonal injury, neuronal necrosis and contusion, impairment of autoregulation of cerebral blood flow and reduction of brain oxygenation and was applied for screening drugs with ICP-lowering effects. Trauma was induced in intubated, isoflurane anesthetized (1.5% isoflurane in a mixture of 30% O2 and 70% N2O) Sprague-Dawley rats (380-400 g) stereotaxically positioned on a table mounted on 4 springs. A 400 g steel cylinder, protected with a 9 mm diameter silicon disc, was dropped on the unprotected skull from a height of either 70 cm or 50 cm (respectively ‘severe’ and ‘moderate’ head injury). The impact area was centered between bregma and lamda. ICP was recorded using a Codman microsensor probe inserted in the parietal cortex. In both severe and moderate head injuries the ICP increased immediately after trauma and remained elevated for several days. The severe head injury mode was used for the evaluation of pharmacological effects immediately after trauma (screening procedure). When survival and recovery from anesthesia was envisaged, the moderate head injury mode was applied. In pharmacological studies, animals with a pathological ICP between 12.5 and 35 mm Hg were included. The changes in ICP, mean arterial blood pressure (MABP) and cerebral perfusion pressure CPP (=[…]) were expressed as percentage of the initial value at onset of the treatment. Screening procedure: On a weekly base, 4 treated groups of 3 rats were compared with 3 saline treated animals. Since conventional statistical methods require a larger amount of animals, a sequential procedure was used. Sequential methods operate in different stages. […] Given the biological relevant level of activity that must be detected, the expected fraction of false positive and negative results was known and fixed. […]

SMILES: Cc1nc2n(C)c3ccccc3n2c(=O)c1CCN1CCC(C2c3ccccc3CCn3c2nc2ccccc23)CC1Cc1ccccc1 (single isomer, unassigned) [Compound 1, (B)[(2α,4β)(A)]3-[2-(4-(11,12-dihydro-6H-benzimidazo [2,1-b][3]benzazepin-6-yl)-2-(phenylmethyl)-1-piperidinyl]ethyl]-2,10-dimethyl-pyrimido[1,2-a]benzimidazol-4(10H)-one (E)-2-butenedioate (2:3) hydrate (1:1)]
- pattern of ICP and blood pressure changes during and after infusion (Rhesus monkeys): resembles the pattern of changes observed in cryo-lesioned rabbits
- effect on ICP during infusion (traumatized rats; first 20 min after severe head injury): rapid reduction of ICP
- effect on ICP after termination of each infusion period (traumatized rats): amplified
- effect on blood pressure (traumatized rats): drops during Compound 1 treatment but is restored again after this episode
- effect on saturation of brain haemoglobin with oxygen (HbSat) (rat brain): not affected
- effect on total brain haemoglobin concentration [HbTot] (rat brain): do not have a significant effect
- CPP (%) (Sprague-Dawley rats [1]): −1.9%
- ETCO2 (%) (Sprague-Dawley rats [1]): 2.2%
- Heart rate(%) (Sprague-Dawley rats [1]): −4.1%
- ICP (%) (Sprague-Dawley rats [1]): −15.4%
- MABP (%) (Sprague-Dawley rats [1]): −3.6%
- Resp. rate(%) (Sprague-Dawley rats [1]): 5.3%
- blood pressure during infusion (rabbits; 2 mg/kg/min for 10 min): drops
- effect on ICP during infusion (rabbits; 2 mg/kg/min for 10 min, FIG. 4): no immediate decrease in ICP
- blood pressure when drug infusion is terminated (rabbits; after 2 mg/kg/min for 10 min): comes back to the initial value
- effect on ICP when drug infusion is terminated (rabbits; after 2 mg/kg/min for 10 min, persists during entire recording period): significant ICP reduction
- effect on ICP, MABP and CPP (non-traumatised rats): comparable with those obtained in the traumatized animals
- dose starting at which reduction in ICP is statistically significantly larger than in the solvent-treated group (Sprague-Dawley rats [2]; 10 min infusion): ≥ 1 mg/kg/min
- effect on ICP during treatment (Sprague-Dawley rats [2]; 10 min infusion at 0.125, 0.25, 0.5, 1 and 2 mg/kg/min, FIG. 1): sustained dose-dependent decrease of ICP
- effect on ICP in the 10 min period following the infusion (Sprague-Dawley rats [2]; after 10 min infusion at 0.125-2 mg/kg/min, FIG. 2): highly significant dose-dependent effect on ICP remains present
